Data reported in PubChem BioAssay (NCI).
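Dose response: 5 concentrations. Exposure: 48 h. Format: 96-well plates. Endpoint: linear interpolation; highest concentration if not reached. The concentration for full growth arrest is given as TGI.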

Assays:
Assay in all cases: growth of human tumour cells (NCI), 48 h
SK-OV-3 ovarian = tested on: SK-OV-3 ovarian
COLO 205 colon = tested on: COLO 205 colon
SN12C renal = tested on: SN12C renal
RPMI-8226 leukemia = tested on: RPMI-8226 leukemia
HT29 colon = tested on: HT29 colon
OVCAR-8 ovarian = tested on: OVCAR-8 ovarian
EKVX NSCLC = tested on: EKVX NSCLC
KM12 colon = tested on: KM12 colon
K-562 leukemia = tested on: K-562 leukemia
TK-10 renal = tested on: TK-10 renal
T-47D breast = tested on: T-47D breast
SK-MEL-2 melanoma = tested on: SK-MEL-2 melanoma
MDA-N = tested on: MDA-N
HL-60(TB) leukemia = tested on: HL-60(TB) leukemia
786-0 renal = tested on: 786-0 renal
OVCAR-4 ovarian = tested on: OVCAR-4 ovarian
LOX IMVI melanoma = tested on: LOX IMVI melanoma
SF-539 CNS = tested on: SF-539 CNS
SK-MEL-5 melanoma = tested on: SK-MEL-5 melanoma
NCI-H23 lung = tested on: NCI-H23 lung
IGROV1 ovarian = tested on: IGROV1 ovarian
HCT-15 colon = tested on: HCT-15 colon
DU-145 prostate = tested on: DU-145 prostate
HS 578T breast = tested on: HS 578T breast
A549 NSCLC = tested on: A549 NSCLC
UACC-62 melanoma = tested on: UACC-62 melanoma
SK-MEL-28 melanoma = tested on: SK-MEL-28 melanoma
OVCAR-3 ovarian = tested on: OVCAR-3 ovarian
ACHN renal = tested on: ACHN renal
SNB-75 CNS = tested on: SNB-75 CNS
SF-268 CNS = tested on: SF-268 CNS
NCI-H226 lung = tested on: NCI-H226 lung
U251 CNS = tested on: U251 CNS
SNB-19 CNS = tested on: SNB-19 CNS
MALME-3M melanoma = tested on: MALME-3M melanoma
SF-295 CNS = tested on: SF-295 CNS
BT-549 breast = tested on: BT-549 breast
M14 melanoma = tested on: M14 melanoma
CCRF-CEM leukemia = tested on: CCRF-CEM leukemia
HCC-2998 colon = tested on: HCC-2998 colon
UACC-257 melanoma = tested on: UACC-257 melanoma
HCT-116 colon = tested on: HCT-116 colon
NCI-H522 lung = tested on: NCI-H522 lung
PC-3 prostate = tested on: PC-3 prostate
NCI/ADR-RES ovarian = tested on: NCI/ADR-RES ovarian
OVCAR-5 ovarian = tested on: OVCAR-5 ovarian
A498 renal = tested on: A498 renal
MDA-MB-435 = tested on: MDA-MB-435
RXF 393 renal = tested on: RXF 393 renal
MDA-MB-231 breast = tested on: MDA-MB-231 breast
MCF7 breast = tested on: MCF7 breast
CAKI-1 renal = tested on: CAKI-1 renal
SW-620 colon = tested on: SW-620 colon
HOP-62 NSCLC = tested on: HOP-62 NSCLC
UO-31 renal = tested on: UO-31 renal
NCI-H460 lung = tested on: NCI-H460 lung
HOP-92 NSCLC = tested on: HOP-92 NSCLC
MOLT-4 leukemia = tested on: MOLT-4 leukemia

Measured: TGI

Cc1csc(-n2nc(C)cc2C)n1
not listed: HOP-92 NSCLC | MOLT-4 leukemia
> 100 µM: all other assays above

O=C1/C(=N\n2c(-c3ccncc3)n[nH]c2=S)c2cc(Cl)ccc2N1CN1CCCCC1
47 µM: HL-60(TB) leukemia
38.3 µM: RXF 393 renal
59.2 µM: SK-MEL-2 melanoma
81.1 µM: CCRF-CEM leukemia
40.2 µM: LOX IMVI melanoma
50.3 µM: MOLT-4 leukemia
76.2 µM: UACC-257 melanoma
33.2 µM: NCI-H522 lung
75 µM: IGROV1 ovarian
93.2 µM: HS 578T breast
not listed: RPMI-8226 leukemia | HCC-2998 colon
> 100 µM: all other assays above
